Where no end group is shown, it is not given here.

For the first series, the target named is T1, Mannheimia haemolytica leukotoxin (Lkt) (Mannheimia haemolytica, UniProt P16535). As to the kind of experiment: cell-based. Conditions: IC50 (uM) aa 4-17.
In general, IC50 refers to the concentration that gives 50% inhibition. A higher IC50 goes with weaker potency. With QCPQLLLLAGLLAL [Cattle Q4C5], the IC50 worked out at 2.6 ± 0.1 µM.
On the same count and under the same terms, as for QCPQVLLLAGLLGL [Eland Q4C5V8G16], the figure is 1.6 ± 0.1 µM.
Regarding RCPQLLLLAGLLAL [Cattle R4C5], the IC50 stood at 14.5 ± 0.6 µM.
Still for that read-out and setting: the figure for RCPQVLLLAGLLGL [Eland R4C5V8G16] is 33.3 ± 1.3 µM.

Still in this series, the particulars now being: IC50 (uM) aa 5-17.
The substance CPQVLLLAGLLGL [Eland C5V8G16] displayed an IC50 of 0.5 ± 0.1 µM.
The substance RPQLLFLSGLLAL [Sheep R5F10S12] registered an IC50 of 16.1 ± 1 µM.
RPQLLLLAGLLAL [R5] displayed an IC50 of 12.1 ± 0.6 µM.
Still for that read-out and setting: the figure for RPQLLLLAGLLSL [Water Buffalo R5S16] is 13.9 ± 1 µM.

The series is the same for the next values; noted with them: IC50 (μM).
Regarding CPQLLLL [(B) 5-11], half-maximal inhibition (IC50) required 56.2 ± 5 µM.
Substance CPQLLLLA [(B) 5-12] yielded an IC50 of 51.5 ± 5.7 µM.
On the same count and under the same terms, as for CPQLLLLAG [(B) 5-13], the figure is 27.8 ± 2 µM; as for CPQLLLLAGL [(B) 5-14], 6.7 ± 0.5 µM; as for CPQLLLLAGLL [(B) 5-15], 2.8 ± 0.2 µM.
CPQLLLLAGLLA [(B) 5-16] displayed an IC50 of 0.6 ± 0.1 µM.
The same measure, in the same setting: as for CPQLLLLAGLLAL [C5], the figure is 1.5 ± 0.1 µM; as for MLRQCPQLLLLAGLLALQSVLS [R3C5], 6.8 ± 0.5 µM; as for MLRQRPQLLLLAGLLALQSVLS [R3R5], 12.7 ± 0.6 µM.
On the same count and under the same terms, the figure for RPQLLLL [(A) 5-11] is 64.8 ± 7.4 µM; for RPQLLLLA [(A) 5-12] it is 81.8 ± 13.6 µM.
Still for that read-out and setting: as for RPQLLLLAG [(A) 5-13], the figure is 75 ± 11.3 µM.
For the substance RPQLLLLAGL [(A) 5-14], the IC50 was determined as 23.1 ± 1.3 µM.
RPQLLLLAGLL [(A) 5-15]: half-maximal inhibition (IC50) was put at 26.4 ± 1.7 µM.
On the same count and under the same terms, the figure for RPQLLLLAGLLA [(A) 5-16] is 18 ± 0.8 µM; for RPQLLLLAGLLAL [R5] it is 13.7 ± 0.6 µM.

The same series, now with this note: IC50, concentration of peptide needed to block 50% of Lkt-induced cytolysis of BL3 cells.
In turn, MLHQRPQLLLLAGLLALQSVLS [H3R5] returned an IC50 of 21.6 µM.
As to MLRQCPQLLLLAGLLALQSVLS [R3C5], the IC50 is 5.9 µM.
Same read-out and setting: the figure for MLRQRPQLLLLAGLLALQSVLS [R3R5] is 17.9 µM.

The target in the next series is T1, Mannheimia haemolytica leukotoxin (Lkt).
Test: not given
Settings: not given
In the case of CPQLLLLAGLLAL [C5], the “fold better at blocking Lkt-induced cytotoxicity compared to the 13-mer R5 peptide” value was determined as 8 fold.

The record behind these values is PMC6406179 (F1000Research, 2018).
